Results taken from patent US20090062120A1, “Agrochemical Composition” (priority 2005, published 2009).

How the values were obtained:
[1] = assay type: physicochemical; conditions: for External appearance of dilution [5% in water] / Crystal formation in dilution [5% in water; 24 hours, 30° C.] / External appearance of dilution [5% in water; 24 hours, 30° C.] / External appearance of formulation [25° C.; on day of preparation] / External appearance of formulation [after 48 hours at 0° C.]: 2,4-D isopropylamine salt 300 g/l; for External appearance of dilution [5% in water] / Crystal formation in dilution [5% in water; 24 hours, 30° C.] / External appearance of dilution [5% in water; 24 hours, 30° C.]: solvent 5% by volume; for External appearance of dilution [5% in water]: 5% (v/v) dilution in water, 500 ppm CaCO3; for Crystal formation in dilution [5% in water; 24 hours, 30° C.] / External appearance of dilution [5% in water; 24 hours, 30° C.]: 5% dilution in water; for External appearance of formulation [25° C.; on day of preparation] / External appearance of formulation [after 48 hours at 0° C.]: solvent addition 5% by volume
From the text: In the form of its amine salts, 2,4-dichlorophenoxyacetic acid tends to crystallize out of concentrated solutions. It is state of the art to use an approximately 5% addition of NMP in order to prevent crystallization. In the present example the isopropylamine salt of 2,4-dichlorophenoxyacetic acid was used, 2,4-D IPA for short.
Concentrated aqueous solutions of 2,4-D in isopropylamine salt form (350 g/l) were admixed with quantities of demineralized water and of the corresponding solvent addition such that the concentration of 2,4-D isopropylamine salt was 300 g/l and that of the solvent under test was 5% v/v. Then the external appearance, instantaneously (see column 2 of Table 5) and after storage at 0° C. […] Particular emphasis was placed on any crystal formation.

[2] = cited from earlier work
[3] = Solubilities of active agrochemical substances in acetylcaprolactam
[4] = Dissolution of tebuconazole in standard aromatic solvents alone; assay type: physicochemical; conditions: exclusive use of Solvesso 150 or Solvesso 200, without acetylcaprolactam; 250 g/l
From the text: A corresponding formulation using these solvents alone, therefore, cannot be prepared.

Row | Compound | External appearance of dilution [5% in water] [1] | Crystal formation in dilution [5% in water; 24 hours, 30° C.] [1] | External appearance of dilution [5% in water; 24 hours, 30° C.] [1] | External appearance of formulation [25° C.; on day of preparation] [1] | External appearance of formulation [after 48 hours at 0° C.] [1] | Toxic effect observed in animal experiments [2] | Behavior compared with NMP [1] | Solubility (% by wt.) at 25° C. [3] | Dissolution at the concentration specified in Example 4 [4]
1 | COCC(C)OCC(C)OC (stereo not drawn) [Dipropylene glycol dimethyl ether] | clear | <1% | clear solution, | clear solution | clear solution | – | – | – | –
2 | CCCCCCCCCC(=O)N(C)C [Genagen 4296, N,N-dimethylcapramide] | turbid | <1% | sample separated, | clear solution | clear solution | – | – | – | –
3 | CN1CCCC1=O [N-Methylpyrrolidone, N-Methyl-2-pyrrolidone] | clear | no crystals | clear solution, | clear solution | clear solution | developmentally toxic effect | – | – | –
4 | CC(=O)N1CCCCCC1=O [Peractive LAC, acetylcaprolactam] | clear | no crystals | clear solution, | clear solution | clear solution | – | closest to NMP | – | –
5 | COCCOCCOCCOCCOC [Tetraethylene glycol dimethyl ether] | clear | <1% | clear solution, | clear solution | clear solution | – | – | – | –
6 | COCCOCCOCCOC [Triethylene glycol dimethyl ether] | clear | >1% | clear solution, | clear solution | clear solution | – | – | – | –
7 | CCC(CC)Nc1c([N+](=O)[O-])cc(C)c(C)c1[N+](=O)[O-] [pendimethalin, N-(1-ethylpropyl)-3,4-dimethyl-2,6-dinitrophenylamine] | – | – | – | – | – | – | – | 60-65 % by wt. | –
8 | COC(=O)Nc1cccc(OC(=O)Nc2cccc(C)c2)c1 [phenmedipham] | – | – | – | – | – | – | – | 15-20 % by wt. | –
9 | CC(C)(C)C(O)(CCc1ccc(Cl)cc1)Cn1cncn1 (stereo not drawn) [tebuconazole, R,S-1-p-chlorophenyl-4,4-dimethyl-3-(1H-1,2,4-triazol-1-yl-methyl)pentan-3-ol] | – | – | – | – | – | – | – | – | cannot be dissolved completely
10 | O=CNC(N1CCN(C(NC=O)C(Cl)(Cl)Cl)CC1)C(Cl)(Cl)Cl (stereo not drawn) [triforine, N,N′-[1,4-piperazinediylbis(2,2,2-trichloroethylidene)]bis-formamide] | – | – | – | – | – | – | – | 15-20 % by wt. | –
